Source: ChEMBL document CHEMBL1149440, “Indol-1-yl acetic acids as peroxisome proliferator-activated receptor agonists: design, synthesis, structural biology, and molecular docking studies” (J Med Chem, 2006)

What was measured:
[1] = molecular target: T1, Peroxisome proliferator-activated receptor alpha (Homo sapiens, UniProt Q07869)
T1 sequence (Q07869 whole entry): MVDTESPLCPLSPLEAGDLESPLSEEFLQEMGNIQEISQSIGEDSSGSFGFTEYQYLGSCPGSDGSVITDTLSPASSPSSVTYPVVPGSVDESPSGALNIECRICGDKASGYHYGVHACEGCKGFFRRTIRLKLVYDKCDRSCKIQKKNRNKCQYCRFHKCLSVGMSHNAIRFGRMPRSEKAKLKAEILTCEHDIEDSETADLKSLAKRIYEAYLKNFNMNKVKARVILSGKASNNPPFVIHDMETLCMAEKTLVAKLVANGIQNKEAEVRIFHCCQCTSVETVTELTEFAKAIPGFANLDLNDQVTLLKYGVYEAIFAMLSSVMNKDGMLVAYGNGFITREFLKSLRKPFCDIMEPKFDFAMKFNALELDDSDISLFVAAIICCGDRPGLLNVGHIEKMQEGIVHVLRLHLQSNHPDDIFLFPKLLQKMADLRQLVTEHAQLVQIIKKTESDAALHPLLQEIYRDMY

[2] = molecular target: T2, Peroxisome proliferator-activated receptor delta (Homo sapiens, UniProt Q03181)
T2 sequence (Q03181 whole entry): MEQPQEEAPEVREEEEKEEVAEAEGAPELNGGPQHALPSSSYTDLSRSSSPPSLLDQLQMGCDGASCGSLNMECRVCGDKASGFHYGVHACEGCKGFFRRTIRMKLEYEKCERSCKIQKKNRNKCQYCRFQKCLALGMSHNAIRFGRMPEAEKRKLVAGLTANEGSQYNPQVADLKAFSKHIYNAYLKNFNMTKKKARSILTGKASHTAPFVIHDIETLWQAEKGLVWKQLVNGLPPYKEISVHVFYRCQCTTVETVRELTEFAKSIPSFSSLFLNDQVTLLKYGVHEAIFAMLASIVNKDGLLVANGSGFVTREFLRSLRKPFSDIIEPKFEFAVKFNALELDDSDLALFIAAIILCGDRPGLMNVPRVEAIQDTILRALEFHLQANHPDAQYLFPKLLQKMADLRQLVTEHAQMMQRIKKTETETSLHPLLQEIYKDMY

[3] = molecular target: T1, Peroxisome proliferator-activated receptor alpha; type: functional, cell-based, Huh-7
[4] = molecular target: T2, Peroxisome proliferator-activated receptor delta; type: functional, cell-based, Huh-7

IC50 [1] [nM]	IC50 [2] [nM]	EC50 [3] [nM]	EC50 [4] [nM]	Structure (SMILES)
496	–	–	–	CCCc1c(OCCCOc2ccc3c(ccn3CC(=O)O)c2)ccc2c(C(F)(F)F)noc12
1020	> 10000	> 10000	> 10000	O=C(O)Cn1ccc2c(OCCCOc3ccc(C(=O)c4ccc(F)cc4)cc3)cccc21
578	5380	19	> 10000	CCCc1c(OCCCOc2cccc3c2ccn3CC(=O)O)ccc2cc(C(=O)c3ccccc3)ccc12
116	3150	765	4350	O=C(O)Cn1ccc2ccc(OCCCOc3ccc(C(=O)c4ccc(F)cc4)cc3)cc21
414	3260	773	4000	CCCc1cc(C(=O)c2ccc(F)cc2)ccc1OCCCOc1cccc2c1ccn2CC(=O)O
113	–	8	–	CCCc1c(OCCCOc2ccc3c(ccn3CC(=O)O)c2)ccc2cc(C(=O)c3ccccc3)ccc12
1050	7620	> 10000	5290	CCCc1cc(C(=O)c2ccc(F)cc2)ccc1OCCCOc1ccc2ccn(CC(=O)O)c2c1
> 10000	> 10000	> 10000	> 10000	O=C(O)Cn1ccc2cc(OCCCOc3ccc(C(=O)c4ccc(F)cc4)cc3)ccc21
4490	2400	2480	4900	CCCc1c(OCCCOc2ccc3ccn(CC(=O)O)c3c2)ccc2cc(C(=O)c3ccccc3)ccc12
4490	2570	> 10000	> 10000	O=C(O)Cn1ccc2ccc(OCCCOc3ccc4cc(C(=O)c5ccccc5)ccc4c3)cc21
484	4430	270	5600	O=C(O)Cn1ccc2cc(OCCCOc3ccc4cc(C(=O)c5ccccc5)ccc4c3)ccc21
1080	> 10000	> 10000	> 10000	O=C(O)Cn1ccc2c(OCCCOc3ccc4cc(C(=O)c5ccccc5)ccc4c3)cccc21
470	–	50	–	CCCc1cc(C(=O)c2ccc(F)cc2)ccc1OCCCOc1ccc2c(ccn2CC(=O)O)c1
